# Values of other authors as cited in US5668151A, “Dihydropyridine NPY antagonists: piperidine derivatives” (Bristol-Myers Squibb Company, priority 1996, dated 1997).
# Key:
# [1] = test system: NPY-induced Ca++ entry in HEL cells
Compound,"effect on the vasoconstrictive activity of the NPY1 agonist [Leu31, Pro34]NPY (rat femoral artery)",effect on the NPY2 agonist NPY13-36 (rat femoral artery; Y2 receptor functional selectivity),pA2 [1]
N=C(N)N(CCCCCCNCc1ccc2ccccc2c1)CCCCCCN(CCCCCCNCc1ccc2ccccc2c1)C(=N)N [Example 6b],no effect,antagonized,
N=C(NCCCc1cnc[nH]1)NCCC(c1cc(F)cc(F)c1)c1ccccn1 (stereo not drawn) [He 90481],,,4.43
